Results as given in PubChem BioAssay (NCI).
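Where inhibition never reached the appropriate level, the endpoint shown equals the highest concentration tested. Otherwise, values were interpolated linearly from a five-concentration, 48-hour dose response in 96-well plates. TGI marks complete inhibition of growth.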 Residues, ends and D or L forms follow the SMILES beside them. *: point of attachment. Boc = CC(C)(C)OC(=O)*; OBn = c1ccc(CO*)cc1

Key:
Experiment in all cases: NCI tumour cell line growth inhibition, 48 h
HCT-15 colon = system: HCT-15 colon
MDA-MB-435 = system: MDA-MB-435
RPMI-8226 leukemia = system: RPMI-8226 leukemia
TK-10 renal = system: TK-10 renal
NCI/ADR-RES ovarian = system: NCI/ADR-RES ovarian
ACHN renal = system: ACHN renal
T-47D breast = system: T-47D breast
MALME-3M melanoma = system: MALME-3M melanoma
EKVX NSCLC = system: EKVX NSCLC
K-562 leukemia = system: K-562 leukemia
SNB-19 CNS = system: SNB-19 CNS
OVCAR-3 ovarian = system: OVCAR-3 ovarian
HCC-2998 colon = system: HCC-2998 colon
OVCAR-4 ovarian = system: OVCAR-4 ovarian
HL-60(TB) leukemia = system: HL-60(TB) leukemia
MDA-MB-231 breast = system: MDA-MB-231 breast
KM12 colon = system: KM12 colon
HOP-62 NSCLC = system: HOP-62 NSCLC
BT-549 breast = system: BT-549 breast
HS 578T breast = system: HS 578T breast

Structure (SMILES) | TGI (HCT-15 colon) [µM] | TGI (MDA-MB-435) [µM] | TGI (RPMI-8226 leukemia) [µM] | TGI (TK-10 renal) [µM] | TGI (NCI/ADR-RES ovarian) [µM] | TGI (ACHN renal) [µM] | TGI (T-47D breast) [µM] | TGI (MALME-3M melanoma) [µM] | TGI (EKVX NSCLC) [µM] | TGI (K-562 leukemia) [µM] | TGI (SNB-19 CNS) [µM] | TGI (OVCAR-3 ovarian) [µM] | TGI (HCC-2998 colon) [µM] | TGI (OVCAR-4 ovarian) [µM] | TGI (HL-60(TB) leukemia) [µM] | TGI (MDA-MB-231 breast) [µM] | TGI (KM12 colon) [µM] | TGI (HOP-62 NSCLC) [µM] | TGI (BT-549 breast) [µM] | TGI (HS 578T breast) [µM]
CCN(CC)CCCNc1nc(=O)[nH]c(C)c1C(=O)Nc1ccc2c(c1)c1ccccc1n2CC | > 100 | > 100 | > 100 | > 100 | > 100 | > 100 | > 100 | > 100 | > 100 | > 100 | > 100 | > 100 | > 100 | > 100 | > 100 | > 100 | > 100 | > 100 |  | 
O=c1[nH]nc(Cn2c3ccc(Br)cc3c3nc4ccccc4nc32)n1C1CCCCC1 | > 100 | > 100 | 77.6 | > 100 | > 100 | > 100 | > 100 |  | > 100 | > 100 | > 100 | > 100 | > 100 | > 100 |  | > 100 | > 100 | 52.8 | > 100 | 
Cc1cnc2c(c1)C(=O)C1=C(OC(C)(C)CC1O)C2=O (centres undefined) | 36.2 |  | 60.6 | 34.1 |  | 29 |  | 27.6 | 36.4 | 46.4 | 31.6 | 23.4 | 32.9 | 25.6 | 26.3 |  | > 100 | 34 |  | 
CC1Cc2cc(O)c(O)cc2-c2cc(O)c(O)cc2CC1C (centres undefined) | 36.1 | 10.5 | > 100 | 86.4 | 38.4 | 87.1 | 63.7 | 20.6 | 96.2 | 39.5 | 96.2 | 29.3 | 43.1 | 33.9 |  | 24.5 | 14 | 41.9 |  | 61.7
CCN(CC)c1ccc2cc(-c3nnc(-c4ccccc4O)o3)c(=O)oc2c1 | 29.4 | 32.7 | > 100 |  | 44.1 | 24.2 |  | 33.6 | 43.4 | > 100 | 26.9 | 21.1 | 72.6 | 27.5 | 22.7 |  | 37.8 | 18.5 | 24.4 | 57.6
NCCCCC(=O)c1cccnc1 | > 100 |  | > 100 | > 100 |  |  |  | > 100 | > 100 | > 100 | > 100 | > 100 |  |  | > 100 |  | > 100 | > 100 |  | 
CC(=O)C(CN(C)C)C(c1ccccc1)c1c(O)c2ccccc2oc1=O (centres undefined) | > 100 |  | > 100 | > 100 |  | > 100 |  | > 100 | > 100 | > 100 | > 100 | > 100 | > 100 | > 100 | > 100 |  | > 100 | > 100 |  | 
O/N=C(\CC(O)(C(F)(F)F)C(F)(F)F)c1cccc(Cl)c1 | > 100 | 85.9 | > 100 | 98.8 | > 100 | 65.9 | 79.7 | > 100 | 67.6 | > 100 |  | 49.4 | > 100 | > 100 | 82.2 | 56.9 | > 100 |  |  | 53
COc1ccc(/C=C/C(=O)CC(=O)/C=C/c2ccc(OC)cc2)cc1 | > 100 | > 100 | > 100 |  | > 100 |  | > 100 | > 100 | > 100 | > 100 | > 100 | 75.5 | > 100 |  | 64.5 | > 100 | > 100 | > 100 |  | 99.8
O=C1NC(N2CCCCC2)=N/C1=C\c1ccccc1O | > 100 | > 100 | > 100 | > 100 | > 100 | > 100 | > 100 | > 100 | > 100 | > 100 | > 100 | > 100 |  | 91.4 | > 100 | > 100 | > 100 | > 100 |  | > 100
SCc1ccc(CS)s1 | > 100 | > 100 |  | > 100 | > 100 |  | > 100 |  | > 100 | > 100 | > 100 | > 100 | > 100 | > 100 | > 100 | > 100 | > 100 | > 100 | > 100 | 
NC(=O)N/N=C(/Cc1nc2ccc(C(=O)c3ccccc3)cc2[nH]c1=O)C(=O)Nc1ccc(C(F)(F)F)cc1[N+](=O)[O-] | > 100 |  | > 100 | > 100 |  | > 100 |  | > 100 | > 100 | > 100 | > 100 | > 100 | > 100 | > 100 | > 100 |  | > 100 | > 100 |  | 
O=C(CN1CCOCC1)c1ccc2c(c1)oc(=O)n2CCN1CCCC1 | > 100 | > 100 | > 100 | > 100 | > 100 | > 100 |  | > 100 | > 100 | > 100 | > 100 | > 100 |  |  | > 100 | > 100 | > 100 | > 100 | > 100 | > 100
O=C(N/N=C/c1ccccc1O)c1ccccc1Nc1ccccc1C(=O)N/N=C/c1ccccc1O | > 100 | > 30.7 |  | > 100 | 5.44 | > 100 | > 100 | 6.09 | > 100 | > 100 | > 100 | > 100 | > 100 | > 100 | > 100 | > 100 | > 100 | > 20.7 | > 100 | 
Cc1cc(=O)[nH]c(NNC(C#N)c2c(O)ccc3ccccc23)n1 (centres undefined) | 18.8 |  | 46.5 | 65.8 |  | 13 |  | 26.8 |  | > 100 |  | 43.1 |  | 31.1 | 8.27 |  | 17.3 | 73.8 |  | 
Cc1ccc(N=NN(C)C(=O)C(C)N)cc1 (centres undefined) | > 100 | > 100 | > 100 | > 100 | > 100 | > 100 | > 100 | > 100 | > 100 | > 100 | > 100 | > 100 | > 100 | > 100 | > 100 |  | > 100 | > 100 | > 100 | 
NC(=O)C(=O)C(c1ccccc1)S(=O)(=O)Cc1ccccc1 (centres undefined) | > 100 | > 100 | > 100 | > 100 | > 100 | > 100 | > 100 |  | > 100 | > 100 | > 100 | > 100 | > 100 | > 100 |  | > 100 | > 100 | > 100 | > 100 | 
COC(=O)C1=CN(C2CCCCC2)C2(c3ccccc3)c3ccccc3C(=O)OC(=O)C12 (centres undefined) | > 100 | > 100 |  | > 100 | > 100 | > 100 |  | > 100 | > 100 | > 100 | > 100 | > 100 | > 100 | > 100 | > 100 | > 100 | > 100 | > 100 | > 100 | 
CC(C)(C)OC(=O)c1ccc(NCC2=CC(=O)C=CC2=O)cc1 | 20.5 | 25.9 | > 27.1 | 21.3 | 28.2 | 22.2 |  | 9.82 | 28.8 | > 100 | 31.4 | 16.1 | 36.6 | 22 | 3.29 | 21.6 | 29.6 | > 61.8 | 29.5 | 46
COc1ccc(/C=C2/NC(=S)N=C2Cl)cc1 | > 100 | > 100 | > 100 | > 100 | > 100 | > 100 | > 100 | > 100 | > 100 | > 100 | > 100 | > 100 |  | > 100 | > 100 | > 100 | > 100 | > 100 |  | > 100
Cc1c(N/C=C(\C#N)C(=O)c2ccc(Cl)cc2)c(=O)n(-c2ccccc2)n1C | > 100 | > 100 | > 100 | > 100 | > 100 |  |  | > 100 | > 100 | > 100 | > 100 | > 100 | > 100 | > 100 | > 100 | > 100 | > 100 |  | > 100 | 
N#Cc1nc(-c2ccccn2)oc1N | > 100 | > 100 | > 100 | > 100 |  | > 100 |  | > 100 | > 100 | > 100 | > 100 | > 100 | > 100 | > 100 | > 100 | > 100 | > 100 | > 100 | > 100 | > 100
COC(=O)c1c[nH]c2c1-c1cc(C(=O)OCc3ccccc3)n(S(=O)(=O)c3ccc(C)cc3)c1C(=O)C2=O | 0.438 | 0.135 | 2.83 | 4.1 | 6.01 | 0.761 | 2.47 | 0.222 | 0.291 | > 100 | 0.505 | 0.155 | 1.9 | 1.08 | > 100 | 0.401 | 0.89 | 1.06 | 0.342 | 
COc1ccc(/C=C2\Sc3nnc(CNc4ccc(Cl)cc4)n3N=C2c2cc(F)c(Cl)cc2Cl)cc1OC | > 100 | > 100 | 42.2 | > 100 | 52.3 | > 100 | > 100 |  | > 100 | > 100 |  | > 100 | > 100 | > 100 | > 100 | > 100 | > 100 | > 100 |  | > 100
CC(C)CC(NC(=O)OC(C)(C)C)C(=O)N1CCCC1C(=O)OCc1ccccc1 (stereo not drawn) (Boc-Leu-Pro-OBn; configuration not given here) | > 100 | > 100 |  | > 100 | > 100 | > 100 | > 100 | > 100 | > 100 | > 100 | > 100 | > 100 |  | > 100 |  | > 100 | > 100 |  | > 100 | 
CC1(S)CC2C(CC1Sc1ccccc1)C2(C)C (centres undefined) | > 100 |  | > 100 | > 100 |  | > 100 |  | > 100 | > 100 | > 100 |  | > 100 | > 100 | > 100 | > 100 |  | > 100 |  |  | 
CN(C)S(=O)(=O)n1cnc(CO)c1 | > 100 | > 100 | > 100 | > 100 | > 100 | > 100 | > 100 | > 100 | > 100 | > 100 | > 100 | > 100 | > 100 | > 100 |  | > 100 | > 100 | > 100 | > 100 | 
CO[C@@H]1C[C@H]2N3CC[C@@]2(c2cc4c(cc2C3)OCO4)[C@H]2O[C@@H]12 | > 100 | > 100 | > 100 | > 100 | > 100 | > 100 |  | > 100 | > 100 | > 100 | > 100 | > 100 | > 100 | > 100 | > 100 | > 100 | > 100 | > 100 | > 100 | > 100
